Measured values published in patent US20230398119A1, “COMBINATION THERAPY INVOLVING DIARYL MACROCYCLIC COMPOUNDS” (TURNING POINT THERAPEUTICS, INC., priority 2019, published 2023).

Columns and labels:
HS766T = test: Pancreatic Cancer Cell Viability Assay; format: cell-based; conditions: Homo sapiens, KRAS Q61H, single agent
Procedure: (§1) Cell proliferation was measured using CellTiter-Glo luciferase-based ATP detection assay (Promega) following the manufacturer's protocol. IC50 determinations were performed using GraphPad Prism software (GraphPad, Inc., San Diego, CA).

ASPC-1 = test: Pancreatic Cancer Cell Viability Assay; format: cell-based; conditions: Homo sapiens, ASPC1; ASPC-1, KRAS G12D; single agent
Procedure: as §1

Panc 10.05 = test: Pancreatic Cancer Cell Viability Assay; format: cell-based; conditions: Homo sapiens, Panc1005; Panc 10.05, KRAS G12D; single agent
Procedure: as §1

Capan-1 = test: Pancreatic Cancer Cell Viability Assay; format: cell-based; conditions: Homo sapiens; Capan-1, KRAS G12V; single agent
Procedure: as §1

HPAC = test: Pancreatic Cancer Cell Viability Assay; format: cell-based; conditions: Homo sapiens, KRAS G12D, single agent
Procedure: as §1

Capan-2 = test: Pancreatic Cancer Cell Viability Assay; format: cell-based; conditions: Homo sapiens; Capan-2, KRAS G12V; single agent
Procedure: as §1

HPAF-II = test: Pancreatic Cancer Cell Viability Assay; format: cell-based; conditions: Homo sapiens, KRAS G12D, single agent
Procedure: as §1

[1] = system: phosphorylated STAT3, FAK, SRC, AKT, ERK (Calu-6); test: Immunoblotting for cellular kinase phosphorylation; format: cell-based, human; conditions: Calu-6 KRAS Q61K; for phospho-AKT (pAKT) protein level / phospho-FAK (pFAK) protein level / phospho-SRC (pSRC) protein level / phospho-STAT3 (pSTAT3) protein level: 4, 24 and 48 h; for phospho-FAK (pFAK) protein level / phospho-SRC (pSRC) protein level / phospho-STAT3 (pSTAT3) protein level: trametinib 50 μM
Procedure: Half a million cells per well were seeded in 24 well plate for 24 hrs, and then treated with compounds for 4, 24 or 48 hours. Cells were collected after treatment and lysed in RIPA buffer (50 mM Tris, pH 7.4, 150 mM NaCl, 1% NP-40, 0.5% Deoxycholate, 0.1% SDS) supplemented with 10 mM EDTA, 1×Halt protease and phosphatase inhibitors (Thermo Scientific). Protein lysates (approximately 20 μg) was resolved on 4-12% Bolt Bis-Tris precasted gels with MES running buffer (Life Technologies), transferred to nitrocellulose membranes using Trans-Blot Turbo Transfer System (Bio-Rad) and detected with antibodies targeting phosphorylated STAT3, FAK, SRC, AKT, ERK, (Cell Signaling Technology), total STAT3, FAK, SRC, AKT, and ERK, (Cell Signaling Technology) Antibodies were typically incubated overnight at 4° C. with gentle shake, followed by washes and incubation with the appropriate HRP-conjugated secondary antibodies. Membranes were incubated with chemiluminescent substrate for 5 min at room temperature (SuperSignal West Femto, Thermo Scientific). The chemiluminescent images were acquired with a C-DiGit Imaging System (LI-COR Biosciences).

SK-CO-1 = test: CRC Cell Viability Assay; format: cell-based; conditions: Homo sapiens; SK-CO-1, KRAS G12V; single agent
Procedure: (§2) Two thousand cells per well were seeded in 96 or 384 well white plate, and then treated with indicated compounds for 72 hours (37° C., 5% CO2). Cell proliferation was measured using CellTiter-Glo luciferase-based ATP detection assay (Promega) following the manufacture's protocol. IC50 determinations were performed using GraphPad Prism software (GraphPad, Inc., San Diego, CA).

LS123 = test: CRC Cell Viability Assay; format: cell-based; conditions: Homo sapiens, LS-123; LS123, KRAS G12S; single agent
Procedure: as §2

NCI-H716 = test: CRC Cell Viability Assay; format: cell-based; conditions: Homo sapiens; NCI-H716, KRAS R97I; single agent
Procedure: as §2

SNU-C2A = test: CRC Cell Viability Assay; format: cell-based; conditions: Homo sapiens, KRAS G12A, single agent
Procedure: as §2

SW948 = test: CRC Cell Viability Assay; format: cell-based; conditions: Homo sapiens; SW948, KRAS Q61L; single agent
Procedure: as §2

DLD-1 = test: CRC Cell Viability Assay; format: cell-based; conditions: Homo sapiens; DLD-1, KRAS G13D; single agent
Procedure: as §2

LS180 = test: CRC Cell Viability Assay; format: cell-based; conditions: Homo sapiens; LS180, KRAS G12D; single agent
Procedure: as §2

SW837 = test: CRC Cell Viability Assay; format: cell-based; conditions: Homo sapiens; SW837, KRAS G12C; single agent
Procedure: as §2

LS1034 = test: CRC Cell Viability Assay; format: cell-based; conditions: Homo sapiens, LS-1034; LS1034, KRAS A146T; single agent
Procedure: as §2

LS513 = test: CRC Cell Viability Assay; format: cell-based; conditions: Homo sapiens, LS-513; LS513, KRAS G12D; single agent
Procedure: as §2

SNU-81 = test: CRC Cell Viability Assay; format: cell-based; conditions: Homo sapiens; SNU-81, KRAS A146T; single agent
Procedure: as §2

HCT-15 = test: CRC Cell Viability Assay; format: cell-based; conditions: Homo sapiens; HCT-15, KRAS G13D; single agent
Procedure: as §2

SW480 = test: CRC Cell Viability Assay; format: cell-based; conditions: Homo sapiens; SW480, KRAS G12V; single agent
Procedure: as §2

HCT-116 = test: CRC Cell Viability Assay; format: cell-based; conditions: Homo sapiens; HCT-116, KRAS G13D; single agent
Procedure: as §2

NCI-H747 = test: CRC Cell Viability Assay; format: cell-based; conditions: Homo sapiens; NCI-H747, KRAS G13D; single agent
Procedure: as §2

SW620 = test: CRC Cell Viability Assay; format: cell-based; conditions: Homo sapiens, SW-620; SW620, KRAS G12V; single agent
Procedure: as §2

SW1116 = test: CRC Cell Viability Assay; format: cell-based; conditions: Homo sapiens, SW 1116; SW1116, KRAS G12A; single agent
Procedure: as §2

T84 = test: CRC Cell Viability Assay; format: cell-based; conditions: Homo sapiens; T84, KRAS G13D; single agent
Procedure: as §2

LoVo = test: CRC Cell Viability Assay; format: cell-based; conditions: Homo sapiens, KRAS G13D, single agent
Procedure: as §2

[2] = Compound 1 1 μM, trametinib 50 nM

Row | Compound | IC50 (HS766T) | IC50 (ASPC-1) | IC50 (Panc 10.05) | IC50 (Capan-1) | IC50 (HPAC) | IC50 (Capan-2) | IC50 (HPAF-II) | phospho-AKT (pAKT) protein level [1, 2] | phospho-FAK (pFAK) protein level ([1]; Compound 1 1 μM) | phospho-SRC (pSRC) protein level ([1]; Compound 1 1 μM) | phospho-STAT3 (pSTAT3) protein level ([1]; Compound 1 1 μM) | IC50 (SK-CO-1) | IC50 (LS123) | IC50 (NCI-H716) | IC50 (SNU-C2A) | IC50 (SW948) | IC50 (DLD-1) | IC50 (LS180) | IC50 (SW837) | IC50 (LS1034) | further results
1 | C[C@H]1CNC(=O)c2cnn3ccc(nc23)N[C@H](C)c2cc(F)ccc2O1 [Compound 1, (7S,13R)-11-fluoro-7,13-dimethyl-6,7,13,14-tetrahydro-1,15-ethenopyrazolo[4,3-f][1,4,8,10]benzoxatriazacyclotridecin-4(5H)-one] | 2490 nM | 8230 nM | 2770 nM | 1040 nM | 1060 nM | 690 nM | 3530 nM | suppresses | suppresses | suppresses | suppresses | 1200 nM | 3060 nM | 667 nM | 8910 nM | 2180 nM | 1370 nM | 18600 nM | 4180 nM | 3850 nM | induction of phosphorylated AKT by 50 nM trametinib ([1]; 1 μM Compound 1): suppressed; trametinib-induced phosphoAKT protein level ([1]; 1 μM Compound 1 compared to dasatinib, defactinib or ruxolitinib): more effectively suppressed; IC50 (LS513): 2220 nM; IC50 (SNU-81): > 10000 nM; IC50 (HCT-15): 1660 nM; IC50 (SW480): 2870 nM; IC50 (HCT-116): 1660 nM; IC50 (NCI-H747): 1940 nM; IC50 (SW620): 1830 nM; IC50 (SW1116): 10800 nM; IC50 (T84): 5310 nM; IC50 (LoVo): 3070 nM
2 | CC(=O)Nc1cccc(-n2c(=O)n(C3CC3)c(=O)c3c(Nc4ccc(I)cc4F)n(C)c(=O)c(C)c32)c1 [Trametinib, N-(3-{3-cyclopropyl-5-[(2-fluoro-4-iodophenyl)amino]-6,8-dimethyl-2,4,7-trioxo-3,4,6,7-tetrahydropyrido[4,3-d]pyrimidin-1(2H)-yl}phenyl)acetamide] | 10 nM | 50 nM | 300 nM | 30 nM | 30 nM | 80 nM | 40 nM | did not suppress | did not suppress | did not suppress | did not suppress | 7 nM | 10000 nM | 459 nM | 24000 nM | 144 nM | 1390 nM | > 10000 nM | 16 nM | 13 nM | pERK protein level [1, 2]: potently inhibited; IC50 (LS513): 6 nM; IC50 (SNU-81): 69 nM; IC50 (HCT-15): 1810 nM; IC50 (SW480): 13 nM; IC50 (HCT-116): 24 nM; IC50 (NCI-H747): 11 nM; IC50 (SW620): 42 nM; IC50 (SW1116): 35 nM; IC50 (T84): 547 nM; IC50 (LoVo): 6 nM
